Results published in patent US7070796B1 (Debiopharm S.A., priority 1999, dated 2006).

Experiments:
Staphylococcus aureus = experiment: Efficacy of the antimicrobial conservation (European Pharmacopea 5.1.3); type: cell-based; settings: oxaliplatinum in solution, test of artificial contamination recommended by the Pharmacopea
Experimental: Under these conditions, the obtained results have shown a definite reduction of the staphylococcus aureus population with a Δlog of 5,99 after 24 hours.

[1] = Solvent optimization above 10 mg/ml, visual observation, with temperature variations; type: physicochemical; settings: for visual aspect of mixture: aqueous, ad 25 ml
Experimental: First it has been carried to 60° C. and maintained at this temperature under agitation during one hour. […] It was then submitted to three successive freezing with, in the interval, return to the room temperature. This solution has then staid seven days in a fridge.

[2] = aqueous medium
From the text: Some of these tests will appear in the examples as comparatives.

N[C@@H]1CCCC[C@H]1N.O=C([O-])C(=O)[O-].[Pt+2] [oxaliplatinum]
antimicrobial efficacy in words (Staphylococcus aureus): antimicrobial efficacy
visual aspect of mixture ([1]; 400 mg oxaliplatinum and 12,5 g maltitol): residues appear
visual aspect of solution ([1]; 337,5 mg oxaliplatinum and 5 g maltitol ad 25 ml, 60° C. under agitation during one hour): clear and colorless
crystal formation ([1]; 337,5 mg oxaliplatinum and 5 g maltitol ad 25 ml, three successive freezing, then seven days in a fridge, return to room temperature): no crystal has been observed
visual aspect of mixture ([1]; 337,5 mg oxaliplatinum and 5 g maltitol): clear
dissolution in words ([1]; 379,7 mg oxaliplatinum in 25 ml glycerol to 85%): partly dissolve

Tween 20
effect of the substance, mixed with or solubilised in water, on oxaliplatinum solubility [2]: ineffective
